Where two headings read alike, the source gives them in different places. Each block holds one compound with its values, some of them ahead of it.
Key:
[1] = tested on: corneas from abattoir beef carcasses
Text: The BCOP test (bovine corneal opacity and permeability) makes it possible to evaluate the ocular irritation indice in vitro on corneas from abattoir beef carcasses. It measures two parameter of ocular irritation: the opacity and cellular permeability.
The opacity is defined as the difference of light transmission between a treated cornea and a control cornea. The permeability is equal to the optical density (OD) measured in a spectrophotometer at 490 nm.
The irritation score in vitro is established by using the following formula:
Score in vitro=opacity value+[…] the value of OD.
The objective values are combined and the scores of ocular irritation in vitro are compared to an irritation scale previously established. In general, the irritant potential is classed in three categories weak (0 to 25), moderate (25.1 to 55) and severe (55.1 and +).

[2] = tested on: skin model: epidermis reconstituted from keratinocytes on a matrix of collagen; assay: MTT dosage on skin model (cytotoxicity)
Text: We have quantified and compared in vitro, the cytotoxicity of lactic acid and of lactate of α-butylglucoside on a skin model. This skin model is made up of a matrix of collagen on which rests an epidermis reconstituted from keratinocytes and presenting a similar architecture to that of the human epidermis. The transformation of tetrazolium salt (MTT) in blue crystals of Formozan is proportional to the activity of the dehydrogenase succinate, (a mitochondrial enzyme). As a consequence, the more the epidermis contains living cells, the larger the transformation by the dehydrogenase succinate of the MTT in blue Formozan crystals will be. The quantity of Formozan is measured in the spectrophotometer. The cellular viability, carried out to determine the toxicity of the product, is calculated according to the formula:
% viability=OD produced/OD cellular control×100
The cellular control is carried out without issue. A reference tensioactive SDS (Sodium Dodecyl Sulphate) at 1.5 mg/ml is equally tested as a cytotoxic control.
If the cellular viability is between 70 and 50%, the products are considered as slightly cytotoxic.
If it is lower than 50%, the products are considered as cytotoxic.

[3] = SDS at 1-5 mg/ml, MTT, skin model

miscibility with saturated and unsaturated acids (in a melted medium): miscible in all proportions
Solubility at 20° C. (solvent: Acetonitrile): 50 % (p/p)
Solubility at 20° C. (solvent: Dichloromethane): 70 % (p/p)
Solubility at 20° C. (solvent: Dioxane): 70 % (p/p)
Solubility at 20° C. (solvent: Ethanol (95/96%)): 70 % (p/p)
Solubility at 20° C. (solvent: Glycerol): 70 % (p/p)
Solubility at 20° C. (solvent: Polyethylene glycol 200): 70 % (p/p)
Solubility at 20° C. (solvent: Propylene glycol): 70 % (p/p)
Solubility at 20° C. (solvent: Water): 60 % (p/p)
Compound: CCCCO[C@H]1O[C@H](CO)[C@@H](O)[C@H](O)[C@H]1O [α-butylglucoside, n-butyl-α-D-monoglucopyranose]
ocular irritation category [1]: non-irritant

Compound: CCCCCCCCCCCCOS(=O)(=O)[O-].[Na+] [SDS, Sodium Dodecyl Sulphate]
% viability in comparison to the control [2, 3]: 14.8%
Average (optical density at 540 nm) [2, 3]: 0.051
OD trial 1 (optical density at 540 nm) [2, 3]: 0.046
OD trial 2 (optical density at 540 nm) [2, 3]: 0.056

Compound: CCCCO[C@H]1O[C@H](COC(=O)C(C)O)[C@@H](O)[C@H](O)[C@H]1O (stereo partly drawn) [Lactate of α-butylglucoside, Lactic Ester of α-Butylglucoside]
% viability in comparison to the control [2]: 74.5%
Average (optical density at 540 nm) [2]: 0.255
OD trial 1 (optical density at 540 nm) [2]: 0.242
OD trial 2 (optical density at 540 nm) [2]: 0.265
cytotoxicity class [2]: not cytotoxic
irritancy compared with lactic acid [2]: less irritant than lactic acid

Compound: CC(O)C(=O)O (stereo not shown) [Lactic acid, lactic acid]
ocular irritation category [1]: moderately irritant
% viability in comparison to the control ([2]; 5 %): 16%
Average (optical density at 540 nm) ([2]; 5 %): 0.055
OD trial 1 (optical density at 540 nm) ([2]; 5 %): 0.044
OD trial 2 (optical density at 540 nm) ([2]; 5 %): 0.066
